Test results: PubChem BioAssay (NCI)
Where “and” joins values, the source holds several entries; their conditions need not be identical. Identical values can stand only once.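 48-hour exposure; five concentrations; linearly interpolated endpoints. At the TGI there is no net growth.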 Where a SMILES comes first, the peptide text is derived from it. The star is where a group is joined. Boc = CC(C)(C)OC(=O)*; tBu = CC(C)(C)*

Key:
Experiment in all cases: inhibition of tumour cell growth, NCI panel, 48 h
[1] = test system: SF-295 CNS
[2] = test system: NCI-H460 lung
[3] = test system: RXF 393 renal
[4] = test system: MDA-MB-435
[5] = test system: LOX IMVI melanoma
[6] = test system: SNB-19 CNS
[7] = test system: OVCAR-8 ovarian
[8] = test system: UO-31 renal
[9] = test system: DU-145 prostate
[10] = test system: HCT-15 colon
[11] = test system: SW-620 colon
[12] = test system: SK-MEL-28 melanoma
[13] = test system: U251 CNS
[14] = test system: NCI-H23 lung
[15] = test system: 786-0 renal
[16] = test system: SK-OV-3 ovarian
[17] = test system: MOLT-4 leukemia
[18] = test system: NCI-H226 lung
[19] = test system: MDA-N
[20] = test system: IGROV1 ovarian

Row | SMILES | TGI [1] | TGI [2] | TGI [3] | TGI [4] | TGI [5] | TGI [6] | TGI [7] | TGI [8] | TGI [9] | TGI [10] | TGI [11] | TGI [12] | TGI [13] | TGI [14] | TGI [15] | TGI [16] [µM] | TGI [17] | TGI [18] | TGI [19] | TGI [20]
1 | N#Cc1c(N)nc2n[nH]c(N)c2c1-c1ccccc1 | 29.7 µM | > 53.2 µM | 13.2 µM | 36.1 µM | 19 µM | > 58.8 µM | 41.8 µM | 32.3 µM | 54.2 µM | > 77.8 µM | > 100 µM | 77.2 µM | 92.2 µM | 50.2 µM | 69.8 µM | 20.4 | 32.4 µM | > 79 µM | 33 µM | 13.4 µM
2 | NC(N)=N/N=C\c1c(-c2ccccc2)nc2sccn12 | 27.9 µM | 29.7 µM | 26.3 µM | 29.2 µM | 30.1 µM | 27.3 µM | 30.9 µM | 31.6 µM | 33 µM | 29.8 µM | 28.1 µM | 29.1 µM | 28.5 µM | 25.4 µM | 27.1 µM | 33.2 | 51.7 µM | 33.1 µM | 27.1 µM | 27 µM
3 | CC1=NNC(=O)[C@H]2[C@H]1CCC1[C@@H]2CC[C@]2(C)[C@@H](O)CC[C@@H]12 (stereo not given in full) | > 100 µM | > 100 µM | > 100 µM | > 100 µM | > 100 µM | > 100 µM | > 100 µM | > 100 µM | > 100 µM | > 100 µM | > 100 µM | > 100 µM | > 100 µM | > 100 µM | > 100 µM | > 100 | > 100 µM | > 100 µM | > 100 µM | > 100 µM
4 | CC(C)CCCC(C)[C@H]1CCC2[C@@H]3CCC4Cc5nc6c(nc5C[C@]4(C)C3CC[C@@]21C)CC1CC[C@@H]2C(CC[C@@]3(C)C2CC[C@@H]3O)[C@@]1(C)C6 (stereo not given in full) | > 100 µM | > 100 µM | > 100 µM | > 100 µM | > 100 µM | > 100 µM | > 100 µM | > 100 µM | > 100 µM | > 100 µM | > 100 µM | > 100 µM | > 100 µM | > 100 µM | > 100 µM | > 100 | > 100 µM | > 100 µM | > 100 µM | > 100 µM
5 | C=C(Cl)C(Cl)(CBr)CCC(Br)C(C)(C)Cl (stereo not given) | 3.53 µM and 3.04 µM and 3.7 µM | 3.66 µM and 2.93 µM and 5.82 µM | 3.92 µM and 0.991 µM and 4.49 µM | 6.56 µM and 4.63 µM and 23.4 µM | 12.4 µM and 29.7 µM and 33.6 µM | 5.54 µM and 4.55 µM and 10.1 µM | 5.15 µM and 2.59 µM and 17 µM | 3.71 µM and 3.73 µM and 11.3 µM | 3.86 µM and 3.1 µM and 7.05 µM | 10.6 µM and 6.12 µM and 27.8 µM | 6.08 µM and 4.35 µM and 27.7 µM | 8.93 µM and 3.51 µM and 24.1 µM | 2.08 µM and 0.925 µM and 2.71 µM | 40.7 µM and 33.8 µM and > 70.2 µM | 0.9 µM and 1.03 µM and 3.78 µM | 62.7 | 59.8 µM and 33.4 µM and 54.3 µM | 38.4 µM and 32.5 µM and 37.9 µM | 8.91 µM and 3.02 µM and 21.6 µM | 27.2 µM and 26.9 µM and 53.1 µM
6 | CC(OC(C)(C)C)C(NC(=O)C(N)CCCCNC(=O)OC(C)(C)C)C(=O)NC(Cc1ccccc1)C(=O)O (stereo not given) (H-Lys(Boc)-Thr(tBu)-Phe-OH; configuration not given here) | > 100 µM | > 100 µM | > 100 µM | > 100 µM | > 100 µM | > 100 µM | > 100 µM | > 100 µM | > 100 µM | > 100 µM | > 100 µM | > 100 µM | > 100 µM | > 100 µM | > 100 µM | > 100 | > 100 µM | > 100 µM | > 100 µM | > 100 µM
7 | COc1cccc(Nc2nc(NS(=O)(=O)c3cc(C)c(Cl)cc3S)n[nH]2)c1 | > 100 µM | > 100 µM | > 100 µM | > 100 µM | > 100 µM | > 100 µM | > 100 µM | > 100 µM | > 100 µM | > 100 µM | > 100 µM | > 100 µM | > 100 µM | > 100 µM | > 100 µM | > 100 | > 100 µM | > 100 µM | > 100 µM | > 100 µM
8 | C=C1C(=O)O[C@@H]2[C@H]1C[C@H](I)[C@@]1(C)CC[C@H](O1)[C@](C)(I)CCCC(C)[C@@H]2O (stereo not given in full) | 31.8 µM | 28.6 µM | 4.44 µM | 11.6 µM | 2.59 µM | 30.5 µM | 8.12 µM | 7.74 µM | 13.6 µM | 4.57 µM | 3.51 µM | 17.6 µM | 20 µM | 20.5 µM | 2.84 µM | 30.7 | > 23.4 µM | 3.85 µM | 9.57 µM | 5.68 µM
9 | Nc1nc2c(c(=O)[nH]1)NC(CCNc1ccc(C(=O)O)cc1)CN2 (stereo not given) | > 100 µM | > 100 µM | > 100 µM | > 100 µM | > 100 µM | > 100 µM | > 100 µM | > 100 µM | > 100 µM | > 100 µM | > 100 µM | > 100 µM | > 100 µM | > 100 µM | > 100 µM | > 100 | > 100 µM | > 100 µM | > 100 µM | > 100 µM
10 | O/N=C1\CSc2ccccc2C1 | > 100 µM | > 100 µM | > 100 µM | > 100 µM | > 100 µM | > 100 µM | > 100 µM | > 100 µM | > 100 µM | > 100 µM | > 100 µM | > 100 µM | > 100 µM | > 100 µM | > 100 µM | > 100 | > 100 µM | > 100 µM | > 100 µM | > 100 µM
11 | COc1ccc2c(C(=O)c3c(C)n(CCN4CCOCC4)c4ccccc34)cccc2c1 | 49 µM | > 100 µM | 91.2 µM | 22.8 µM | 45.4 µM | > 100 µM | 59.4 µM | > 100 µM | > 100 µM | > 100 µM | 55.4 µM | > 100 µM | 52.2 µM | > 100 µM | > 100 µM | > 100 | > 100 µM | > 100 µM | > 100 µM | > 100 µM
